Where a name gives a salt, the structure may show the parent alone.
Each compound was assayed on Human primary T cells (assay: IL-2 ELISA, human primary T cell, anti-CD3+CD28+ (whole cell assay)). Settings: Homo sapiens, T-cell, 24 h, human primary T cells stimulated with anti-CD3 + anti-CD28, 24 hours.
Assay type: cell-based
Outline: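 PBMC-derived T cells, pre-expanded on αCD3/αCD28 with IL-2 and then washed free of IL-2, were preincubated with compound for 1 hr at 37° C (100,000 cells/well). They were then stimulated on 1 μg/ml αCD3 plus 5 μg/ml αCD28 for 24 h, and supernatant IL-2 was measured by ELISA. The counter-assay used 0.5 ng/ml PMA plus 0.1 μM ionomycin instead.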

Q: CC(C)N1CCC(Oc2ccc(Nc3ncc(F)c(NC4CC(C)(C)N(C)C(C)(C)C4)n3)cc2C(F)(F)F)CC1 [III-101, 5-fluoro-N2-(4-(1-isopropylpiperidin-4-yloxy)-3-(trifluoromethyl)phenyl)-N4-(1,2,2,6,6-pentamethylpiperidin-4-yl)pyrimidine-2,4-diamine] was tested. Which IC50 did it give?
A: < 250 nM

Q: CC(C)N1CCC(Oc2ccc(Nc3ncc(F)c(NC4CC(C)(C)NC(C)(C)C4)n3)cc2C(F)(F)F)CC1 [III-102, 5-fluoro-N2-(4-(1-isopropylpiperidin-4-yloxy)-3-(trifluoromethyl)phenyl)-N4-(2,2,6,6-tetramethylpiperidin-4-yl)pyrimidine-2,4-diamine] was tested. Which IC50 did it give?
A: 250 to 500 nM

Q: CC(C)N1CCC(Oc2ccc(Nc3ncc(F)c(NC4CC(C)(C)N(C)C(C)(C)C4)n3)cc2OC(F)F)C(F)C1 (stereo not shown) [III-103, N2-(3-(difluoromethoxy)-4-(3-fluoro-1-isopropylpiperidin-4-yloxy)phenyl)-5-fluoro-N4-(1,2,2,6,6-pentamethylpiperidin-4-yl)pyrimidine-2,4-diamine trifluoroacetate salt] was tested. Which IC50 did it give?
A: 250 to 500 nM

Q: CC(C)N1CCC(Oc2ccc(Nc3ncc(F)c(NC4CC(C)(C)NC(C)(C)C4)n3)cc2OC(F)F)C(F)C1 (stereo not shown) [III-104, N2-(3-(difluoromethoxy)-4-(3-fluoro-1-isopropylpiperidin-4-yloxy)phenyl)-5-fluoro-N4-(2,2,6,6-tetramethylpiperidin-4-yl)pyrimidine-2,4-diamine trifluoroacetate salt] was tested. Which IC50 did it give?
A: 500 to 1000 nM

Q: CC(C)N1CCC(Oc2ccc(Nc3ncc(F)c(NC4CC(C)(C)N(C)C(C)(C)C4)n3)cc2OC(F)F)C(F)(F)C1 (stereo not shown) [III-107, N2-(4-(3,3-difluoro-1-isopropylpiperidin-4-yloxy)-3-(difluoromethoxy)phenyl)-5-fluoro-N4-(1,2,2,6,6-pentamethylpiperidin-4-yl)pyrimidine-2,4-diamine] was tested. Which IC50 did it give?
A: 500 to 1000 nM

Q: CC(C)N1CCC(Oc2ccc(Nc3ncc(F)c(NC4CC(C)(C)NC(C)(C)C4)n3)cc2OC(F)F)C(F)(F)C1 (stereo not shown) [III-108, N2-(4-(3,3-difluoro-1-isopropylpiperidin-4-yloxy)-3-(difluoromethoxy)phenyl)-5-fluoro-N4-(2,2,6,6-tetramethylpiperidin-4-yl)pyrimidine-2,4-diamine] was tested. Which IC50 did it give?
A: 500 to 1000 nM

Q: For CC1(C)CC(Nc2nc(Nc3ccc(OC4CCOCC4)c(F)c3)ncc2F)CC(C)(C)N1 [III-109, 5-fluoro-N2-(3-fluoro-4-(tetrahydro-2H-pyran-4-yloxy)phenyl)-N4-(2,2,6,6-tetramethylpiperidin-4-yl)pyrimidine-2,4-diamine], which IC50 is on record?
A: 500 to 1000 nM

Q: How did the IC50 turn out when [2H]C([2H])([2H])N1C(C)(C)CC(Nc2nc(Nc3ccc(OC4CCN(C(C)C)CC4)c(OC(F)F)c3)ncc2F)CC1(C)C [III-110, N2-(3-(difluoromethoxy)-4-(1-isopropylpiperidin-4-yloxy)phenyl)-5-fluoro-N4-(1-trideuteromethyl-2,2,6,6-tetramethylpiperidin-4-yl)pyrimidine-2,4-diamine] was run?
A: < 250 nM

Q: With [2H]C([2H])([2H])N1C(C)(C)CC(Nc2nc(Nc3ccc(OC4CCN(C(C)C)CC4)c(Cl)c3)ncc2F)CC1(C)C [III-111, N2-(3-(chloro)-4-(1-isopropylpiperidin-4-yloxy)phenyl)-5-fluoro-N4-(1-trideuteromethyl-2,2,6,6-tetramethylpiperidin-4-yl)pyrimidine-2,4-diamine] as the compound, how does the IC50 read?
A: < 250 nM

Q: Which IC50 does the source give for [2H]C([2H])([2H])N1C(C)(C)CC(Nc2nc(Nc3ccc(OC4CCN(C(C)C)CC4F)c(OC(F)F)c3)ncc2F)CC1(C)C (stereo not shown) [III-112, N2-(3-(difluoromethoxy)-4-(3-fluoro-1-isopropylpiperidin-4-yloxy)phenyl)-5-fluoro-N4-(1-trideuteromethyl-2,2,6,6-tetramethylpiperidin-4-yl)pyrimidine-2,4-diamine] here?
A: 250 to 500 nM

Q: For [2H]C([2H])([2H])N1C(C)(C)CC(Nc2nc(Nc3ccc(C)c(-n4cnnn4)c3)ncc2F)CC1(C)C [III-113, 5-fluoro-N2-(4-methyl-3-(1H-tetrazol-1-yl)phenyl)-N4-(1-trideuteromethyl-2,2,6,6-tetramethylpiperidin-4-yl)pyrimidine-2,4-diamine], which IC50 is on record?
A: < 250 nM

Q: For [2H]C([2H])([2H])N1C(C)(C)CC(Nc2nc(Nc3cccc(-n4cnnn4)c3)ncc2F)CC1(C)C [III-114, 5-fluoro-N2-(3-(1H-tetrazol-1-yl)phenyl)-N4-(1-trideuteromethyl-2,2,6,6-tetramethylpiperidin-4-yl)pyrimidine-2,4-diamine], which IC50 is on record?
A: < 250 nM

Q: How did the IC50 turn out when [2H]C([2H])([2H])N1C(C)(C)CC(Nc2nc(Nc3cccc(-n4nnnc4C)c3)ncc2F)CC1(C)C [III-115, 5-fluoro-N2-(3-(5-methyl-1H-tetrazol-1-yl)phenyl)-N4-(1-trideuteromethyl-2,2,6,6-tetramethylpiperidin-4-yl)pyrimidine-2,4-diamine] was run?
A: < 250 nM

Q: Which IC50 does the source give for CC1(C)CC(Nc2nc(Nc3cc(C4CC4)cc(-n4cnnn4)c3)ncc2F)CC(C)(C)N1 [III-116, N^2-(3-cyclopropyl-5-(1H-tetrazol-1-yl)phenyl)-5-fluoro-N^4(2,2,6,6-tetramethylpiperidin-4-yl)pyrimidine-2,4-diamine] here?
A: < 250 nM

Q: Which IC50 does the source give for CN1C(C)(C)CC(Nc2nc(Nc3cc(C4CC4)cc(-n4cnnn4)c3)ncc2F)CC1(C)C [III-117, N^2-(3-cyclopropyl-5-(1H-tetrazol-1-yl)phenyl)-5-fluoro-N^4(1,2,2,6,6-pentamethylpiperidin-4-yl)pyrimidine-2,4-diamine] here?
A: < 250 nM

Q: How did the IC50 turn out when CC1(C)CC(Nc2nc(Nc3ccc(C4CC4)c(-n4cnnn4)c3)ncc2F)CC(C)(C)N1 [III-118, N^2-(4-cyclopropyl-3-(1H-tetrazol-1-yl)phenyl)-5-fluoro-N^4(2,2,6,6-tetramethylpiperidin-4-yl)pyrimidine-2,4-diamine] was run?
A: < 250 nM

Q: For CN1C(C)(C)CC(Nc2nc(Nc3ccc(C4CC4)c(-n4cnnn4)c3)ncc2F)CC1(C)C [III-119, N^2-(4-cyclopropyl-3-(1H-tetrazol-1-yl)phenyl)-5-fluoro-N^4(1,2,2,6,6-pentamethylpiperidin-4-yl)pyrimidine-2,4-diamine], which IC50 is on record?
A: < 250 nM

Q: How did the IC50 turn out when Cn1nnnc1-c1cc(Nc2ncc(F)c(NC3CC(C)(C)NC(C)(C)C3)n2)ccc1F [III-120, 5-fluoro-N2-(4-fluoro-3-(1-methyl-1H-tetrazol-5-yl)phenyl)-N4-(2,2,6,6-tetramethylpiperidin-4-yl)pyrimidine-2,4-diamine] was run?
A: 500 to 1000 nM

Q: How did the IC50 turn out when CN1C(C)(C)CC(Nc2nc(Nc3ccc(F)c(-c4nnnn4C)c3)ncc2F)CC1(C)C [III-121, 5-fluoro-N2-(4-fluoro-3-(1-methyl-1H-tetrazol-5-yl)phenyl)-N4-(1,2,2,6,6-pentamethylpiperidin-4-yl)pyrimidine-2,4-diamine] was run?
A: < 250 nM

Q: Which IC50 does the source give for CC(C)Oc1ccc(Nc2ncc(F)c(NC3CC(C)(C)NC(C)(C)C3)n2)cc1-c1nnnn1C [III-122, 5-fluoro-N2-(4-isopropoxy-3-(1-methyl-1H-tetrazol-5-yl)phenyl)-N4-(2,2,6,6-tetramethylpiperidin-4-yl)pyrimidine-2,4-diamine] here?
A: < 250 nM

Q: Which IC50 does the source give for CC(C)Oc1ccc(Nc2ncc(F)c(NC3CC(C)(C)N(C)C(C)(C)C3)n2)cc1-c1nnnn1C [III-123, 5-fluoro-N2-(4-isopropoxy-3-(1-methyl-1H-tetrazol-5-yl)phenyl)-N4-(1,2,2,6,6-pentamethylpiperidin-4-yl)pyrimidine-2,4-diamine] here?
A: < 250 nM

Q: Which IC50 does the source give for Cn1nnnc1-c1cc(Nc2ncc(F)c(NC3CC(C)(C)NC(C)(C)C3)n2)ccc1OC1CCOCC1 [III-124, 5-fluoro-N2-(3-(1-methyl-1H-tetrazol-5-yl)-4-(tetrahydro-2H-pyran-4-yloxy)phenyl)-N4-(2,2,6,6-tetramethylpiperidin-4-yl)pyrimidine-2,4-diamine] here?
A: > 1000 nM

Q: How did the IC50 turn out when CN1C(C)(C)CC(Nc2nc(Nc3ccc(OC4CCOCC4)c(-c4nnnn4C)c3)ncc2F)CC1(C)C [III-125, 5-fluoro-N2-(3-(1-methyl-1H-tetrazol-5-yl)-4-(tetrahydro-2H-pyran-4-yloxy)phenyl)-N4-(1,2,2,6,6-pentamethylpiperidin-4-yl)pyrimidine-2,4-diamine] was run?
A: 250 to 500 nM

Q: For Cn1nnnc1-c1cc(Nc2ncc(F)c(NC3CC(C)(C)NC(C)(C)C3)n2)ccc1OC1COC1 [III-126, 5-fluoro-N2-(3-(1-methyl-1H-tetrazol-5-yl)-4-(oxetan-3-yloxy)phenyl)-N4-(2,2,6,6-tetramethylpiperidin-4-yl)pyrimidine-2,4-diamine], which IC50 is on record?
A: > 1000 nM

Q: Which IC50 does the source give for CN1C(C)(C)CC(Nc2nc(Nc3ccc(OC4COC4)c(-c4nnnn4C)c3)ncc2F)CC1(C)C [III-127, 5-fluoro-N2-(3-(1-methyl-1H-tetrazol-5-yl)-4-(oxetan-3-yloxy)phenyl)-N4-(1,2,2,6,6-pentamethylpiperidin-4-yl)pyrimidine-2,4-diamine] here?
A: < 250 nM

Q: COCCn1nnnc1-c1cc(Nc2ncc(F)c(NC3CC(C)(C)N(C)C(C)(C)C3)n2)ccc1F [III-128, 5-fluoro-N2-(4-fluoro-3-(1-(2-methoxyethyl)-1H-tetrazol-5-yl)phenyl)-N4-(1,2,2,6,6-pentamethylpiperidin-4-yl)pyrimidine-2,4-diamine] was tested. Which IC50 did it give?
A: 250 to 500 nM

Same assay, conditions: human primary T cells stimulated with anti-CD3 + anti-CD28, 24 hours

Q: CC(C)N1CCC(Oc2ccc(Nc3ncc(F)c(NC4CC(C)(C)N(C)C(C)(C)C4)n3)cc2OC(F)F)C(F)C1 (stereo not shown) [III-105, N2-(3-(difluoromethoxy)-4-(3-fluoro-1-isopropylpiperidin-4-yloxy)phenyl)-5-fluoro-N4-(1,2,2,6,6-pentamethylpiperidin-4-yl)pyrimidine-2,4-diamine] was tested. Which IC50 did it give?
A: < 250 nM

Q: For CC(C)N1CCC(Oc2ccc(Nc3ncc(F)c(NC4CC(C)(C)NC(C)(C)C4)n3)cc2OC(F)F)C(F)C1 (stereo not shown) [III-106, N2-(3-(difluoromethoxy)-4-(3-fluoro-1-isopropylpiperidin-4-yloxy)phenyl)-5-fluoro-N4-(2,2,6,6-tetramethylpiperidin-4-yl)pyrimidine-2,4-diamine], which IC50 is on record?
A: < 250 nM

From patent publication US9149475B2, “Protein kinase C inhibitors and uses thereof” (Rigel Pharmaceuticals, Inc., priority 2009, dated 2015)
